Legend:
Assay type in all cases: in vivo
[1] = test system: boll weevil (Anthonomus grandis); test: Action on boll weevil (Anthonomus grandis), 96-well microtiter plate diet test; conditions: 120 h, egg and larval mortality after 5 days, read-out: mortality in comparison with untreated controls
Protocol: For evaluating control of boll weevil (Anthonomus grandis) the test unit consisted of 96-well-microtiter plates containing an insect diet and 5-10 A. grandis eggs.
The compounds were formulated using a solution containing 75% v/v water and 25% v/v DMSO. Different concentrations of formulated compounds were sprayed onto the insect diet at 5 μl, using a custom built micro atomizer, at two replications.
After application, microtiter plates were incubated at about 25±1° C. and about 75±5% relative humidity for 5 days. Egg and larval mortality was then visually assessed.

[2] = test system: Southern Armyworm (Spodoptera eridania), 2nd Instar Larvae; test: Action on southern armyworm (Spodoptera eridania), 2nd instar larvae, sprayed lima bean plants; conditions: 96 h, 2nd instar larvae on lima bean, 4 days after treatment, read-out: mortality in comparison with untreated controls
Protocol: The active compounds were formulated by a Tecan liquid handler in 100% cyclohexanone as a 10,000 ppm solution supplied in tubes. The 10,000 ppm solution was serially diluted in 100% cyclohexanone to make interim solutions. These served as stock solutions for which final dilutions were made by the Tecan in 50% acetone:50% water (v/v) into 10 or 20 ml glass vials. A nonionic surfactant (Kinetic®) was included in the solution at a volume of 0.01% (v/v). The vials were then inserted into an automated electrostatic sprayer equipped with an atomizing nozzle for application to plants/insects.
Lima bean plants (variety Sieva) were grown 2 plants to a pot and selected for treatment at the 1st true leaf stage. Test solutions were sprayed onto the foliage by an automated electrostatic plant sprayer equipped with an atomizing spray nozzle. The plants were dried in the sprayer fume hood and then removed from the sprayer. Each pot was placed into perforated plastic bags with a zip closure. About 10 to 11 armyworm larvae were placed into the bag and the bags zipped closed. Test plants were maintained in a growth room at about 250C and about 20-40% relative humidity for 4 days, avoiding direct exposure to fluorescent light (24 hour photoperiod) to prevent trapping of heat inside the bags. Mortality and reduced feeding were assessed 4 days after treatment, compared to untreated control plants.

[3] = test system: tobacco budworm (Heliothis virescens); test: Action on tobacco budworm (Heliothis virescens), 96-well microtiter plate diet test; conditions: 120 h, egg and larval mortality after 5 days, read-out: mortality in comparison with untreated controls
Protocol: For evaluating control of tobacco budworm (Helliothis virescens) the test unit consisted of 96-well-microtiter plates containing an insect diet and 15-25 H. virescens eggs.
The compounds were formulated using a solution containing 75% v/v water and 25% v/v DMSO. Different concentrations of formulated compounds were sprayed onto the insect diet at 10 μl, using a custom built micro atomizer, at two replications.
After application, microtiter plates were incubated at about 28±1° C. and about 80±5% relative humidity for 5 days. Egg and larval mortality was then visually assessed.

[4] = test system: Silverleaf Whitefly (Bemisia argentifoli) (Adults); test: Action on silverleaf whitefly (Bemisia argentifoli) adults, sprayed cotton plants; conditions: Bemisia argentifolii, 72 h, 3 days after treatment, read-out: mortality in comparison with untreated controls
Protocol: The active compounds were formulated by a Tecan liquid handler in 100% cyclohexanone as a 10,000 ppm solution supplied in tubes. The 10,000 ppm solution was serially diluted in 100% cyclohexanone to make interim solutions. These served as stock solutions for which final dilutions were made by the Tecan in 50% acetone:50% water (v/v) into 5 or 10 ml glass vials. A nonionic surfactant (Kinetic®) was included in the solution at a volume of 0.01% (v/v). The vials were then inserted into an automated electrostatic sprayer equipped with an atomizing nozzle for application to plants/insects.
Cotton plants at the cotyledon stage (one plant per pot) were sprayed by an automated electrostatic plant sprayer equipped with an atomizing spray nozzle. The plants were dried in the sprayer fume hood and then removed from the sprayer. Each pot was placed into a plastic cup and about 10 to 12 whitefly adults (approximately 3-5 days old) were introduced. The insects were collected using an aspirator and a nontoxic Tygon® tubing connected to a barrier pipette tip. The tip, containing the collected insects, was then gently inserted into the soil containing the treated plant, allowing insects to crawl out of the tip to reach the foliage for feeding. Cups were covered with a reusable screened lid. Test plants were maintained in a growth room at about […] and about 20-40% relative humidity for 3 days, avoiding direct exposure to fluorescent light (24 hour photoperiod) to prevent trapping of heat inside the cup. Mortality was assessed 3 days after treatment, compared to untreated control plants.

[5] = test system: yellow fever mosquito (Aedes aegypti); test: whole plant or invertebrate; conditions: 48 h, larval mortality visually assessed after 2 days, read-out: mortality in comparison with untreated controls
Protocol: For evaluating control of yellow fever mosquito (Aedes aegypti) the test unit consisted of 96-well-microtiter plates containing 200 μl of tap water per well and 5-15 freshly hatched A. aegypti larvae.
The active compounds were formulated using a solution containing 75% (v/v) water and 25% (v/v) DMSO. Different concentrations of formulated compounds or mixtures were sprayed onto the insect diet at 2.5 μl, using a custom built micro atomizer, at two replications.
After application, microtiter plates were incubated at 28±1° C., 80±5% RH for 2 days. Larval mortality was then visually assessed.

[6] = test system: Diamond Back Moth (Plutella xylostella); test: Action on diamond back moth (Plutella xylostella), cabbage leaf dip; conditions: foliar, 3rd instar larvae on dipped cabbage leaves, 72 hours after treatment, read-out: mortality in comparison with untreated controls
Protocol: The active compound is dissolved at the desired concentration in a mixture of 1:1 (vol:vol) distilled water:acetone. Surfactant (Kinetic® HV) is added at a rate of 0.01% (vol/vol).The test solution is prepared at the day of use.
Leaves of cabbage were dipped in test solution and air-dried. Treated leaves were placed in petri dishes lined with moist filter paper and inoculated with ten 3rd instar larvae. Mortality was recorded 72 hours after treatment. Feeding damages were also recorded using a scale of 0-100%.

[7] = test system: Orchid thrips (Dichromothrips corbetti); test: Action on orchid thrips (Dichromothrips corbetti), floral-immersion technique; conditions: adult thrips, mortality 72 hours after treatment, read-out: mortality in comparison with untreated controls
Protocol: Dichromothrips corbetti adults used for bioassay were obtained from a colony maintained continuously under laboratory conditions. For testing purposes, the test compound is diluted in a 1:1 mixture of acetone:water (vol:vol), plus Kinetic® HV at a rate of 0.01% v/v.
Thrips potency of each compound was evaluated by using a floral-immersion technique. All petals of individual, intact orchid flowers were dipped into treatment solution and allowed to dry in Petri dishes. Treated petals were placed into individual re-sealable plastic along with about 20 adult thrips. All test arenas were held under continuous light and a temperature of about 28° C. for duration of the assay. After 3 days, the numbers of live thrips were counted on each petal. The percent mortality was recorded 72 hours after treatment.

CC(/C=N/N=C1\SCC(=O)N1c1ccccc1C(C)C)=C\c1ccc(N(C)c2ccc(OC(F)(F)F)cc2)nc1 [Compound C-12, (2Z)-3-(2-isopropylphenyl)-2-[(E)-[(E)-2-methyl-3-[6-[N-methyl-4-(trifluoromethoxy)anilino]-3-pyridyl]prop-2-enylidene]hydrazono]thiazolidin-4-one]
≥ 75%: mortality at 800 ppm [1] | mortality at 300 ppm [2] | mortality at 800 ppm [3] | mortality at 300 ppm [4] | mortality at 800 ppm [5] | mortality at 500 ppm [6] | mortality at 500 ppm [7]

CC(/C=N/N=C1\SCC(=O)N1c1ccccc1C(C)C)=C\c1cnc(Nc2ccc(OC(F)(F)F)cc2)nc1 [Compound C-3, (2Z)-3-(2-isopropylphenyl)-2-[(E)-[(E)-2-methyl-3-[2-[4-(trifluoromethoxy)anilino]pyrimidin-5-yl]prop-2-enylidene]hydrazono]thiazolidin-4-one]
≥ 75%: mortality at 800 ppm [1] | mortality at 300 ppm [2] | mortality at 800 ppm [3] | mortality at 300 ppm [4] | mortality at 800 ppm [5] | mortality at 500 ppm [6] | mortality at 500 ppm [7]

CC(/C=N/NC(=S)Nc1ccccc1C(C)C)=C\c1cnc(N(C)c2ccc(OC(F)(F)F)cc2)nc1C [Compound C-16, 1-(2-isopropylphenyl)-3-[(E)-[(E)-2-methyl-3-[4-methyl-2-[N-methyl-4-(trifluoromethoxy)anilino]pyrimidin-5-yl]prop-2-enylidene]amino]thiourea]
≥ 75%: mortality at 800 ppm [1] | mortality at 300 ppm [2] | mortality at 800 ppm [3] | mortality at 300 ppm [4] | mortality at 800 ppm [5] | mortality at 500 ppm [6] | mortality at 500 ppm [7]

CC(/C=N/N=C1\SCC(=O)N1c1ccccc1C(C)C)=C\c1cnc(N(C)c2ccc(OC(F)(F)F)cc2)nc1 [Compound C-7, (2Z)-3-(2-isopropylphenyl)-2-[(E)-[(E)-2-methyl-3-[2-[N-methyl-4-(trifluoromethoxy)anilino]pyrimidin-5-yl]prop-2-enylidene]hydrazono]thiazolidin-4-one]
≥ 75%: mortality at 800 ppm [1] | mortality at 300 ppm [2] | mortality at 800 ppm [3] | mortality at 300 ppm [4] | mortality at 800 ppm [5] | mortality at 500 ppm [6] | mortality at 500 ppm [7]

CC(C)c1ccccc1N1C(=O)CS\C1=N/N=C/C=C/c1cnc(N(C)c2ccc(OC(F)(F)F)cc2)nc1 [Compound C-5, (2Z)-3-(2-isopropylphenyl)-2-[(E)-[(E)-3-[2-[N-methyl-4-(trifluoromethoxy)anilino]pyrimidin-5-yl]prop-2-enylidene]hydrazono]thiazolidin-4-one]
≥ 75%: mortality at 800 ppm [1] | mortality at 300 ppm [2] | mortality at 800 ppm [3] | mortality at 300 ppm [4] | mortality at 800 ppm [5] | mortality at 500 ppm [6] | mortality at 500 ppm [7]

CC(/C=N/N=C1\SCC(=O)N1c1ccccc1C(C)C)=C\c1cnc(N(C)c2ccc(OC(F)(F)F)cc2)nc1C [Compound C-17, (2Z)-3-(2-isopropylphenyl)-2-[(E)-[(E)-2-methyl-3-[4-methyl-2-[N-methyl-4-(trifluoromethoxy)anilino]pyrimidin-5-yl]prop-2-enylidene]hydrazono]thiazolidin-4-one]
≥ 75%: mortality at 800 ppm [1] | mortality at 300 ppm [2] | mortality at 800 ppm [3] | mortality at 300 ppm [4] | mortality at 800 ppm [5] | mortality at 500 ppm [6] | mortality at 500 ppm [7]

CC(/C=N/NC(=S)Nc1ccccc1C(C)C)=C\c1cnc(N(C)c2ccc(OC(F)(F)F)cc2)nc1 [Compound C-6, 1-(2-isopropylphenyl)-3-[(E)-[(E)-2-methyl-3-[2-[N-methyl-4-(trifluoromethoxy)anilino]pyrimidin-5-yl]prop-2-enylidene]amino]thiourea]
≥ 75%: mortality at 800 ppm [1] | mortality at 300 ppm [2] | mortality at 800 ppm [3] | mortality at 300 ppm [4] | mortality at 800 ppm [5] | mortality at 500 ppm [6] | mortality at 500 ppm [7]

CO[C@@H]1[C@@H](OC)[C@@H](OC)C(O/N=C/C(C)=C/c2cnc(N(C)c3ccc(OC(F)(F)F)cc3)nc2)O[C@H]1C (stereo partly drawn) [Compound C-23, N-methyl-5-[(E,3E)-2-methyl-3-[(3R,4R,5S,6S)-3,4,5-trimethoxy-6-methyl-tetrahydropyran-2-yl]oxyimino-prop-1-enyl]-N-[4-(trifluoromethoxy)phenyl]pyrimidin-2-amine]
≥ 75%: mortality at 800 ppm [1] | mortality at 300 ppm [2] | mortality at 800 ppm [3] | mortality at 300 ppm [4] | mortality at 800 ppm [5] | mortality at 500 ppm [6] | mortality at 500 ppm [7]
